Measurements from patent publication US10975068B2, “6-aminopyridin-3-yl thiazoles as modulators of RORγT” (Janssen Pharmaceutica NV, priority 2016, dated 2021).
pIC50, pKd: −log10 of the molar value. Like-named read-outs stand apart in the source and are kept apart here.

Key:
[1] = biological target: human RORγt ligand binding domain (RORγt LBD) (Homo sapiens (Human), UniProt P51449); assay: RORγt ThermoFluor® assay (thermal shift binding); conditions: read-out: ThermoFluor® Assay, Kd
Summary of the method: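 His-tagged human RORγt LBD (0.065 mg/mL) with 60 μM 1,8-ANS in 100 mM Hepes pH 7.0, 10 mM NaCl, 2.5 mM GSH, 0.002% Tween-20 was heated at 1 °C/min.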

full-length human RORγt = full-length human RORγt (Homo sapiens (Human), UniProt P51449); assay: RORγt (full-length human) reporter assay, Conditions B or C; assay type: cell-based; conditions: for RORγt (FL) Reporter Assay B or C, % inhibition (value marked *): marked *: footnote not given; for pIC50: read-out: RORγt (FL) Reporter Assay B or C, IC50; for inhibition at 3 µM: at 3 μM compound concentration, read-out: RORγt (FL) Reporter Assay B or C, % inhibition
Summary of the method: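 HEK293T cells transiently co-transfected with GAL4-DBD–full-length human RORγt (nt 142-1635, NM_001001523.1) plus GAL4-firefly and CMV-Renilla luciferase reporters; compounds added 4-6 h post-transfection for 16-20 h in 1.3% FBS, 0.1% DMSO. Firefly signal normalized to DMSO and saturating reference compound, then to Renilla; IC50 from concentration plots.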

Sequence of full-length human RORγt (P51449 other isoform, or with tags, fused parts or gaps): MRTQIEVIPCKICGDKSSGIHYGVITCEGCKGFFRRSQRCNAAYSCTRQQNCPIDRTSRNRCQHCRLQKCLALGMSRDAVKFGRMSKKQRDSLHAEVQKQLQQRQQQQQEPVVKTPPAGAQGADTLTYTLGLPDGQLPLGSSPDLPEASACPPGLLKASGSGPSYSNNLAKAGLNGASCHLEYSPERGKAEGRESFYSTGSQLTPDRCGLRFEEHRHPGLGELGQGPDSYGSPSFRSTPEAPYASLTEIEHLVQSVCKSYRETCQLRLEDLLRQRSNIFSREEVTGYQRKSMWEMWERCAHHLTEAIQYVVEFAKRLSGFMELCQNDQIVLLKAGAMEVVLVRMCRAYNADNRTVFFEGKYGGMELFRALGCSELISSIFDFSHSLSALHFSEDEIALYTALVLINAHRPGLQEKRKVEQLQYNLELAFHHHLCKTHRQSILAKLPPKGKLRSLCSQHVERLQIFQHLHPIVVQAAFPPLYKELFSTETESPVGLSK
Sequence of human RORγt ligand binding domain (RORγt LBD) (P51449 other isoform, or with tags, fused parts or gaps): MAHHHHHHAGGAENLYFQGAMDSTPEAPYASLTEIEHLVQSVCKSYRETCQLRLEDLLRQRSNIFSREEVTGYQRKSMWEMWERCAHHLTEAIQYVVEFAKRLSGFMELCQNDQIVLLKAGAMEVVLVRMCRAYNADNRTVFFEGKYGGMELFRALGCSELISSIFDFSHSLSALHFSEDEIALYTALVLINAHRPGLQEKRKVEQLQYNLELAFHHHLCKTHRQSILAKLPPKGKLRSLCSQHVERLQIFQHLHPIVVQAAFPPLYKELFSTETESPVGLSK

Compound | pKd [1] | RORγt (FL) Reporter Assay B or C, % inhibition (value marked *) (full-length human RORγt; Conditions B or C) | pIC50 (full-length human RORγt; Conditions B or C) | inhibition at 3 µM (full-length human RORγt) [%] | pIC50 (full-length human RORγt) | RORγt (FL) Reporter Assay B or C, % inhibition (value marked ***) (full-length human RORγt; Conditions B or C, marked ***: footnote not given)
C[C@H]1CC(F)(F)CN1C(=O)c1nc(C(=O)NCC(C)(C)O)sc1-c1cnc(NC2(C)CCC2)cc1C(F)F [Example 168] | 8.74 | 106* % | 6.70 |  |  | 
C[C@H]1CCCN1C(=O)c1nc(C(=O)NCC(C)(C)O)sc1-c1cnc(NCC2CCC2)cc1C(F)F [Example 301, (S)-5-(6-((Cyclobutylmethyl)amino)-4-(difluoromethyl)pyridine-3-yl)-N-(2-hydroxy-2-methylpropyl)-4-(2-methylpyrrolidine-1-carbonyl)thiazole-2-carboxamide] | 7.52 |  |  | 95 | 7.08 | 
C[C@H]1CC(F)(F)CN1C(=O)c1nc(C(=O)NC2COCC2O)sc1-c1cnc(NC2(C)CCC2)cc1C(F)(F)F (stereo in doubt) [Example 185, 4-((S)-4,4-Difluoro-2-methylpyrrolidine-1-carbonyl)-N-((3S,4R)-4-hydroxytetrahydrofuran-3-yl)-5-(6-((1-methylcyclobutyl)amino)-4-(trifluoromethyl)pyridine-3-yl)thiazole-2-carboxamide] | 9.64 | 101* % | 7.82 |  |  | 
C[C@H]1CCCN1C(=O)c1nc(C(=O)NCC(C)(C)O)sc1-c1cnc(NC2CCCC2(F)F)cc1C(F)(F)F (stereo partly drawn) [Example 127, 5-(6-((2,2-Difluorocyclopentyl)amino)-4-(trifluoromethyl)pyridin-3-yl)-N-(2-hydroxy-2-methylpropyl)-4-((S)-2-methylpyrrolidine-1-carbonyl)thiazole-2-carboxamide] | 8.21 | 114* % | 6.96 |  |  | 
CC[C@H](Nc1cc(C(F)F)c(-c2sc(C(=O)N[C@H]3CCC[C@@H]3O)nc2C(=O)N2C3CCC2CC3)cn1)C(F)(F)F [Example 210, 4-((1s,4s)-7-Azabicyclo[2.2.1]heptane-7-carbonyl)-5-(4-(difluoromethyl)-6-(((1S)-1-(trifluoromethyl)propyl)amino)-3-pyridyl)-N-((1S,2S)-2-hydroxycyclopentyl)thiazole-2-carboxamide] | 9.16 | 105* % | 7.68 |  |  | 
C[C@H]1CCCN1C(=O)c1nc(C(=O)N[C@H]2C[C@H](O)C2)sc1-c1cnc(NC2CCCC2)cc1C(F)F [Example 74, 5-(6-(Cyclopentylamino)-4-(difluoromethyl)pyridin-3-yl)-N-((1r,3s)-3-hydroxycyclobutyl)-4-((S)-2-methylpyrrolidine-1-carbonyl)thiazole-2-carboxamide] | 7.14 | 101* % | 7.49 |  |  | 
CNC(=O)c1nc(C(=O)N2CCC[C@@H]2C)c(-c2cnc(NC(C)(C)C)cc2C(F)(F)F)s1 [Example 307, (S)-5-(6-(tert-Butylamino)-4-(trifluoromethyl)pyridin-3-yl)-N-methyl-4-(2-methylpyrrolidine-1-carbonyl)thiazole-2-carboxamide] | 7.37 |  |  | 102 | 6.82 | 
CC(C)[C@H](C)Nc1cc(C(F)F)c(-c2sc(C(=O)NCC(C)(C)O)nc2C(=O)N2CCC[C@@H]2C)cn1 [Example 300, 5-(4-(Difluoromethyl)-6-(((S)-3-methylbutan-2-yl)amino)pyridine-3-yl)-N-(2-hydroxy-2-methylpropyl)-4-((S)-2-methylpyrrolidine-1-carbonyl)thiazole-2-carboxamide] | 8.80 |  |  | 100 | 7.54 | 
C[C@H](Nc1cc(C(F)F)c(-c2sc(C(=O)N[C@H]3CCC[C@@H]3O)nc2C(=O)N2CCC[C@@H]2C)cn1)C(F)(F)F [Example 285, 5-(4-(Difluoromethyl)-6-(((S)-1,1,1-trifluoropropan-2-yl)amino)pyridin-3-yl)-N-((1S,2S)-2-hydroxycyclopentyl)-4-((S)-2-methylpyrrolidine-1-carbonyl)thiazole-2-carboxamide] | 8.54 |  |  | 104 | 7.19 | 
C[C@H]1CC(F)(F)CN1C(=O)c1nc(C(=O)NCC(C)(C)O)sc1-c1cnc(NC(C)(C)C)cc1C(F)(F)F [Example 83, (S)-5-(6-(tert-Butylamino)-4-(trifluoromethyl)pyridin-3-yl)-4-(4,4-difluoro-2-methylpyrrolidine-1-carbonyl)-N-(2-hydroxy-2-methylpropyl)thiazole-2-carboxamide] | 9.26 |  | 8.16 |  |  | 110*** %
CC[C@H](Nc1cc(C(F)F)c(-c2sc(C(=O)N[C@@H](C)[C@H](C)O)nc2C(=O)N2CCC[C@@H]2C)cn1)C(F)(F)F (relative stereo) [Example 217, 5-(4-(Difluoromethyl)-6-(((S)-1,1,1-trifluorobutan-2-yl)amino)pyridin-3-yl)-N-((2S*,3S*)-3-hydroxybutan-2-yl)-4-((S)-2-methylpyrrolidine-1-carbonyl)thiazole-2-carboxamide] | 8.49 | 109* % | 7.72 |  |  | 
C[C@H]1CCCN1C(=O)c1nc(C(=O)N[C@H]2C[C@@H](O)C2)sc1-c1cnc(NC(C)(C)C)cc1C(F)(F)F [Example 251, 5-[6-(tert-Butylamino)-4-(trifluoromethyl)-3-pyridyl]-N-((1s,3R)-3-hydroxycyclobutyl)-4-[(2S)-2-methylpyrrolidine-1-carbonyl]thiazole-2-carboxamide] | 7.68 |  |  | 104 | 7.14 | 
C[C@H]1CCCN1C(=O)c1nc(C(=O)N[C@H]2CC[C@H](O)C2)sc1-c1cnc(NC(C)(C)C)cc1C(F)F [Example 414, 5-[6-(tert-Butylamino)-4-(difluoromethyl)-3-pyridyl]-N-[(1S,3S)-3-hydroxycyclopentyl]-4-[(2S)-2-methylpyrrolidine-1-carbonyl]thiazole-2-carboxamide] | 8.77 |  |  | 110 | 7.89 | 
C[C@H](Nc1cc(C(F)F)c(-c2sc(C(=O)N[C@H]3CC[C@H](O)C3)nc2C(=O)N2CCC[C@@H]2C)cn1)C(F)(F)F [Example 288, 5-(4-(Difluoromethyl)-6-(((S)-1,1,1-trifluoropropan-2-yl)amino)pyridin-3-yl)-N-((1S,3S)-3-hydroxycyclopentyl)-4-((S)-2-methylpyrrolidine-1-carbonyl)thiazole-2-carboxamide] | 8.36 |  |  | 103 | 7.54 | 
C[C@H](Nc1cc(C(F)F)c(-c2sc(C(=O)N[C@@H]3CCC[C@H]3O)nc2C(=O)N2CCC[C@@H]2C)cn1)C(F)(F)F [Example 283, 5-(4-(Difluoromethyl)-6-(((S)-1,1,1-trifluoropropan-2-yl)amino)pyridin-3-yl)-N-((1R,2R)-2-hydroxycyclopentyl)-4-((S)-2-methylpyrrolidine-1-carbonyl)thiazole-2-carboxamide] | 8.72 |  |  | 106 | 7.27 | 
